Experiments:
[1] = Thymolytic activity (Hilger, Endocrine Bioassay Data, assay 8); type: in vivo; conditions: preliminary experiments
Excerpt: In preliminary experiments, invvestigating the thymolytic effect according to A. C.

[2] = Progestional activity, Clauberg test; type: in vivo; conditions: standard scale of McPhail, preliminary experiments
Excerpt: The progestional activities of compounds 1:1, 1:2, 1:14, 2:2, and 2:11 are investigated in the Clauberg test using the prinicpal procedure as described by Elton and Edgren (Endocrinology 63 (1958) 464) and using the standard scale of McPhail (J. Physiol., London, 8 (1934) 145).

[3] = system: Hepatoma AH 130; test: Hepatoma AH 130 tumour growth inhibition in rats, i.p.; type: in vivo, Sprague-Dawley rats; conditions: Hepatoma AH 130, one injection i.p.
Excerpt: (§1) LD50 is the dose that causes a 50 percent lethality of the animals, and ED50 is the dose that causes a 50 percent reduction of tumour size.
(§2) From the data below it is obvious that the compounds have a very low toxicity, and that the therapeutic indexes (T.I.), i.e. the ratios LD50/ED50, are very high.
(§3) The experimental design is in accordance with the standards set by the CCNSC (Cancer Cheomotherapy Reports, January 1959 and December 1962).
(§4) Experimental animals: Sprague-Dawley rats.
Tumour implant: 5 × 10^6 tumour cells i.p.
(§5) Therapy: One injection i.p. on the day following implantation.
(§6) Termination: The animals are killed on the 8th day.
(§7) Evaluation: Weights of tumours of test animals are compared
(§8) with those of control animals.

[4] = system: Ehrlich ascites tumour, ELD hyperdiploid (46 chromosomes); test: Ehrlich ascites tumour growth inhibition in mice, i.p.; type: in vivo, SPF NMRI mice; conditions: one injection i.p.; for Tumour weight Treated/Control (%): killed on 8th day
Excerpt: as §3
Ehrlich ascites tumour, ELD hyperdiploid
Experimental animals: SPF NMRI mice.
Tumour implant: 2 × 10^6 tumour cells i.p.
as §5, §6
Evaluation: Weight of tumours of test animals compared with
those of control animals.

[5] = system: ventral prostate; test: Androgenic effect in castrated male rats (ventral prostate weight); type: in vivo; conditions: both after subcutaneous and intraperitoneal administration; one daily injection for 7 days; preliminary experiments
Protocol: The androgenic activity, as described below, is determined with established methods (see e.g. Dorfman, R.: Methods in Hormone Research, vol. II, Acad. Press, New York and London 1962, p. 275).
The androgenic effect is assayed in castrated male rats. Beginning two weeks after castration the animals are given one daily injection of the compound for 7 days. The weight of the ventral prostate is determined on the 8th day.

[6] = system: Walker carcinosarcoma 256; test: Walker carcinosarcoma 256 tumour growth inhibition in rats, p.o.; type: in vivo, Sprague-Dawley rats; conditions: Walker carcinosarcoma 256, daily p.o. for 5 days
Excerpt: as §1, §2, §3
Walker carcinosarcoma 256
as §4
Tumour implant: Tumour pieces with 2-4 mm diameter, subcu-
Therapy: Daily p.o. administration for 5 days starting on
the day following implantation.
Termination: The animals are killed on the 9th day.
as §7, §8

CC(=O)OCC(=O)[C@@]1(OC(C)=O)CC[C@H]2[C@@H]3CC=C4C=C(OC(=O)CCCc5ccc(N(CCCl)CCCl)cc5)CC[C@]4(C)[C@H]3CC[C@@]21C [1:16, 17,21-diacetoxy-3-[4-(4-(N,N-bis(2-chloroethyl)amino)phenyl)butanoyloxy]-pregna-3,5-dien-20-one]
thymolytic effect [1]: significant activity

CC(=O)[C@H]1CC[C@H]2[C@@H]3CC=C4C=C(OC(=O)CCCc5ccc(N(CCCl)CCCl)cc5)CC[C@]4(C)[C@H]3CC[C@]12C [Compound 1:2, 3-/4-(4-(N,N-bis(2-chloroethyl)amino)phenyl)butanoyloxy/pregna-3,5-dien-20-one]
progestional activity [2]: considerable activity

CC(=O)O[C@]1(C(C)=O)CC[C@H]2[C@@H]3CC=C4C=C(OC(=O)Cc5ccc(N(CCCl)CCCl)cc5)CC[C@]4(C)[C@H]3CC[C@@]21C [Compound 1:14, 17-acetoxy-3-[4-(N,N-bis(2-chloroethyl)amino)phenylacetoxy]pregna-3,5-dien-20-one]
progestional activity [2]: considerable activity

CCC(=O)O[C@H]1CC[C@H]2[C@@H]3CC=C4C=C(OC(=O)[C@H](Cc5ccc(N(CCCl)CCCl)cc5)NC(C)=O)CC[C@]4(C)[C@H]3CC[C@]12C [1:13, 3-[(2S)-2-acetamido-3-(4-(N,N-bis(2-chloroethyl)amino)phenyl)propanoyloxy]-17β-propanoyloxyandrosta-3,5-diene]
anti-tumour activity [3]: exhibit anti-tumour activity

C#C[C@]1(OC(C)=O)CC[C@H]2[C@@H]3CC=C4C=C(OC(=O)CCCc5ccc(N(CCCl)CCCl)cc5)CC[C@@H]4[C@H]3CC[C@@]21C [Compound 2:2, 17β-acetoxy-3/4-(4-(N,N-bis(2-chloroethyl)amino)phenyl)butanoyloxy/-17α-ethynylestra-3,5-diene]
progestional activity [2]: considerable activity

CC(=O)O[C@]1(C(C)=O)CC[C@H]2[C@@H]3CC=C4C=C(OC(=O)CCCc5ccc(N(CCCl)CCCl)cc5)CC[C@]4(C)[C@H]3CC[C@@]21C [Compound 1:1, 17-acetoxy-3-/4-(4-(N,N-bis(2-chloroethyl)amino)phenyl)butanoyloxy/pregna-3,5-dien-20-one]
Mortality ([4]; 500 mg/kg): 0/12 | Tumour weight Treated/Control (%) ([4]; 500 mg/kg): 1% | anti-tumour activity [3]: exhibit anti-tumour activity | progestional activity [2]: considerable activity

CC(=O)O[C@H]1CC[C@H]2[C@@H]3CC=C4C=C(OC(=O)CCCc5ccc(N(CCCl)CCCl)cc5)CC[C@]4(C)[C@H]3CC[C@]12C [1:11, 17β-acetoxy-3-[4-(4-(N,N-bis(2-chloroethyl)amino)phenyl)butanoyloxy]androsta-3,5-diene]
androgenic effect [5]: considerable effect

CC(=O)O[C@]1(C(C)=O)CC[C@H]2[C@@H]3CC=C4C=C(OC(=O)c5ccc(C)c(N(CCCl)CCCl)c5)CC[C@]4(C)[C@H]3CC[C@@]21C [2:11, 17-acetoxy-3-[3-(N,N-bis(2-chloroethyl)amino)-4-methylbenzoyloxy]pregna-3,5-dien-20-one]
Mortality ([4]; 1000 mg/kg): 0/12 | Tumour weight Treated/Control (%) ([4]; 1000 mg/kg): 2% | progestional activity [2]: considerable activity

CC(=O)OCC(=O)[C@@]1(OC(C)=O)CC[C@H]2[C@@H]3CC=C4C=C(OC(=O)CCCc5ccc(N(CCCl)CCCl)cc5)CC[C@]4(C)[C@H]3C(=O)C[C@@]21C [1:15, 17,21-diacetoxy-3-[4-(4-(N,N-bis(2-chloroethyl)amino)phenyl)butanoyloxy]pregna-3,5-dien-11,20-dione]
thymolytic effect [1]: significant activity

CC(=O)OCC(=O)[C@H]1CC[C@H]2[C@@H]3CC=C4C=C(OC(=O)CCCc5ccc(N(CCCl)CCCl)cc5)CC[C@]4(C)[C@H]3CC[C@]12C [1:17, 21-acetoxy-3-[4-(4-(N,N-bis(2-chloroethyl)amino)phenyl)butanoyloxy]-pregna-3,5-dien-20-one]
thymolytic effect [1]: significant activity

CC(=O)O[C@H]1CC[C@H]2[C@@H]3CC[C@H]4CC(OC(=O)c5ccc(C)c(N(CCCl)CCCl)c5)=CC[C@]4(C)[C@H]3CC[C@]12C [Compound 2:1, 17β-acetoxy-3-/3-(N,N-bis(2-chloroethyl)amino)-4-methylbenzoyloxy/androst-2-ene]
anti-tumour activity [6]: exhibit anti-tumour activity

CC(=O)O[C@H]1CC[C@H]2[C@@H]3CCC4CC(OC(=O)CCCc5ccc(N(CCCl)CCCl)cc5)=CC[C@]4(C)[C@H]3CC[C@]12C (stereo partly drawn) [1:12, 17β-acetoxy-3-[4-(4-(N,N-bis(2-chloroethyl)amino)phenyl)butanoyloxy]androst-2-ene]
androgenic effect [5]: considerable effect

CC(=O)O[C@H]1CC[C@H]2[C@@H]3CC=C4C=C(OC(=O)Cc5ccc(N(CCCl)CCCl)cc5)CC[C@]4(C)[C@H]3CC[C@]12C [1:3]
androgenic effect [5]: considerable effect
